# “And” between values parts separate entries of the source, which are not always exact repeats. Identical values can stand only once. Like-named read-outs stand apart in the source and are kept apart here.
# How the values were obtained:
# [1] = molecular target: T1, dephosphorylated IRE1α (547–977) (Homo sapiens, UniProt O75460); test: FRET-based IRE1α RNase activity assay, dephosphorylated IRE1α; type: biochemical
# T1 construct: Human IRE1α kinase and RNase domain (residues 547–977) was subcloned into pLIB plasmid; His tag (with TEV cleavage site) (N, cleaved yes); made in house; host or cells: Sf9 insect cells, baculovirus (Bac-to-Bac)
# How it was run: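 Dephosphorylated human IRE1α (residues 547–977, Sf9-expressed, λ-phosphatase treated), 40 nM, preincubated 30 min with compound at room temperature, then 100 nM FAM/BHQ1 XBP1 RNA added in HEPES pH 7.5 buffer. Fluorescence (485/535 nm) read kinetically for 1 h; inhibition from linear-phase slopes versus DMSO, fitted to IC50.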
# [2] = test system: IRE1α protein in MDA-MB-231 cells; test: Western blot of IRE1α protein level, MDA-MB-231; type: cell-based, human
# Description: (§1) A549 cells and MDA-MB-231 Cells were harvested and seeded into 6-well plates with a density of 8 × 10^5 cells per well and cultured overnight. […]. Protein concentrations were measured using a BCA protein assay kit (Thermo Scientific, 23227) and all samples were diluted to the same protein concentration. Each sample with 40 μg of total protein was loaded onto a 4–15% MP stain-free gel (Bio-Rad, 4568085) and separated in tris-glycine-SDS running buffer. The proteins were transferred onto a 0.45 μm PVDF membrane (Bio-Rad, 1704274) using the Trans-Blot Turbo Transfer System with the preprogrammed standard SD protocol (up to 1.0 A; 25 V; 30 min). Membranes were blocked with 5% skim milk (Roth, T145.2) in PBST buffer, then incubated with primary antibody IRE1α (Cell Signaling Technology, #3294 s, 1:1000), XBP1s (Cell Signaling Technology, #12782 s, 1:1000) GAPDH (Proteintech, 10494-1-AP, 1:6000) overnight at 4 °C with shaking. After incubation, membranes were washed with PBST and incubated with the Goat Anti-Rabbit (Proteintech, SA00001-2, 1:6000) antibody at room temperature for 1 h. After washing with PBST, the membranes were visualized using Amersham ECL Prime Western Blotting Detection Kit (Cytiva, RPN2232) and imaged with a ChemiDoc MP imaging system (Bio-Rad).
# [3] = test system: IRE1α protein in A549 cells; test: Western blot of IRE1α protein level, A549; type: cell-based, human
# Description: as §1
# IRE1α (ERN1) = IRE1α (ERN1) (Homo sapiens, UniProt O75460); test: LanthaScreen Eu kinase binding assay, IRE1α; settings: for inhibition at 5.56 µM: Conc. 5560 nM; for inhibition at 5.56 µM / inhibition at 16.7 µM / inhibition at 50 µM: duplicates; for inhibition at 16.7 µM: Conc. 16700 nM; for inhibition at 50 µM: Conc. 50000 nM
# Description: LanthaScreen^TM Eu kinase binding assays were conducted by SelectScreen Kinase Profiling Services (Thermo Fisher) using Alexa Fluor conjugated kinase tracer, tagged kinase protein, and Eu-labeled anti-tag antibody. The binding of the tracer to the kinase will form the tracer-kinase complex, resulting in a high FRET signal with the Eu-labeled anti-tag antibody. Displacement of the tracer by a kinase inhibitor led to a decreased FRET signal. […] Buffer A containing 50 mM HEPES pH 7.5, 0.01% BRIJ-35, 10 mM MgCl2, and 1 mM EGTA was used.
# Kinase profiling was conducted by the SelectScreen Kinase Profiling Services (Thermo Fisher), using Z′-LYTE, Adapta, or LanthaScreen Eu Kinase Binding Assay for different kinases. The kinome phylogenetic tree was generated using the KinMap web portal.
# [4] = FRET assay at 50 μM, source data, 50 µM
# [5] = FRET assay, RNase activity, mean (± SEM), read-out: IRE1α IC50
# [6] = FRET assay, source data, unit from Fig. 3 / sheet Fig. 2b, read-out: IRE1a IC50, individual replicates (n1-n4)
# [7] = read-out: IRE1a Kinase Displacement(%)
# [8] = IRE1α kinase domain, read-out: IC50 (kinase binding), LanthaScreen Eu kinase binding
# [9] = IRE1a, IA34 0.000282 μM, Supplementary Fig. 3b, replicate values
# [10] = IRE1a, IA34 1.85185 μM, Supplementary Fig. 3b, replicate values
# T1 sequence (O75460 547-977): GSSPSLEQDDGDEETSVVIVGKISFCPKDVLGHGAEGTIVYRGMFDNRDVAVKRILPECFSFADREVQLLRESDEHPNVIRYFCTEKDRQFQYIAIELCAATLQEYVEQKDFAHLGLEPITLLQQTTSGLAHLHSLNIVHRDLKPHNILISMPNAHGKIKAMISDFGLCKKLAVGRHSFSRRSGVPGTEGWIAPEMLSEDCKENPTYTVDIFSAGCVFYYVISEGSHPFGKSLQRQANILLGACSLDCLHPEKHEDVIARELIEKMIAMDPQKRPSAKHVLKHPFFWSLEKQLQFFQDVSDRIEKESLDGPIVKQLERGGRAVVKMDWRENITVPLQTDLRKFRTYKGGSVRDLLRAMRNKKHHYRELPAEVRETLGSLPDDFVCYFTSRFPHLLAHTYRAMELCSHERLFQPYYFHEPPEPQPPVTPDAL
# Sequence of IRE1α (ERN1) (O75460 19-977): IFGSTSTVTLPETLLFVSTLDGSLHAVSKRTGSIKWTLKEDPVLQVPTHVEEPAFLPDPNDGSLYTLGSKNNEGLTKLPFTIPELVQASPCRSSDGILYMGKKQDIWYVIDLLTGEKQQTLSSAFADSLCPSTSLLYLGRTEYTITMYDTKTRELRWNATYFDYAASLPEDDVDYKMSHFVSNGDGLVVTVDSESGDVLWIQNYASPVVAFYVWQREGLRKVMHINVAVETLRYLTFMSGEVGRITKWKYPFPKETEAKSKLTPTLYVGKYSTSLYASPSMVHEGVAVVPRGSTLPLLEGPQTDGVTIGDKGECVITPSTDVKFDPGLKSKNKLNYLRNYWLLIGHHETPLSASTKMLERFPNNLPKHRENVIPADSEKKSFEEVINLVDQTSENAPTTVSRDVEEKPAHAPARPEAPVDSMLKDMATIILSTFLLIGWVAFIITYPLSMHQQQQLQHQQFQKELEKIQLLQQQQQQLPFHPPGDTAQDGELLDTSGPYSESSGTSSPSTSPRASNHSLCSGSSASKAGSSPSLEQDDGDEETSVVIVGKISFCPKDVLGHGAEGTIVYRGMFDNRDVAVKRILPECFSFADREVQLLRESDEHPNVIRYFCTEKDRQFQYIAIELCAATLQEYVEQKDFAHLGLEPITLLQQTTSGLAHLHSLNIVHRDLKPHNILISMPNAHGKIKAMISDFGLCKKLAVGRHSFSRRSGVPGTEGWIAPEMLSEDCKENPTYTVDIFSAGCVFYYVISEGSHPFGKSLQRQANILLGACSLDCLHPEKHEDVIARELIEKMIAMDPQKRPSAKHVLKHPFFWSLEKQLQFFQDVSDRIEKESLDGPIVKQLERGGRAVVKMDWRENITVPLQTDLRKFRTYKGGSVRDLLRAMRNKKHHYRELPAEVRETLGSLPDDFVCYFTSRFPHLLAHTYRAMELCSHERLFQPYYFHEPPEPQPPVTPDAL
smiles,measurement,setting,value
"CCOC(=O)Nc1cccc2c(Oc3ncccc3-c3ccnc(N[C@H]4CCCNC4)n3)c(C)ccc12 [Compound G1749, reference compound]",effect on IRE1α RNase activity in the FRET assay,[1],activating IRE1α activity
same,activity (fold change),"[1]; IRE1a, 5.55556 μM",6.184 fold change and 6.333 fold change and 5.999 fold change and 6.267 fold change
same,activity (fold change),"[1]; IRE1a, 16.6667 μM",6.104 fold change and 5.222 fold change and 7.238 fold change and 6.279 fold change
same,activity (fold change),"[1]; IRE1a, 50 μM",5.173 fold change and 5.3757 fold change and 6.203 fold change and 5.356 fold change
same,effect on IRE1α protein level,[2],did not affect
same,effect on IRE1α protein level,[3],did not affect
COc1ccc2c(c1)c(CCC(=O)O)c(C)n2C(=O)c1ccc(Cl)cc1 [IA01],"IRE1a inhibition(%), individual measurements","[1]; FRET assay at 10 μM, source data, 10 µM",86.3319%
same,inhibition at 10 µM,"[1]; FRET assay at 10 μM, source data, read-out: IRE1a inhibition(%), individual measurements",85.9%
same,inhibition at 50 µM,"[1]; FRET assay at 50 μM, mean (± SEM), read-out: IRE1α inhibition%",97.1%
same,"IRE1a inhibition(%), individual measurements",[1]; [4],92.8762% and 91.6346% and 94.1417% and 92.7378% and 93.1088% and 89.7986% and 113.165% and 103.517% and 100.196% and 112.293% and 71.6431% and 81.6993%
same,IC50,[1]; [5],300 nM
same,IC50,[1]; [6],286 nM and 204 nM and 400 nM
same,inhibition at 5.56 µM,IRE1α (ERN1); [7],50%
same,inhibition at 16.7 µM,IRE1α (ERN1); [7],63%
same,inhibition at 50 µM,IRE1α (ERN1); [7],70%
same,IC50,IRE1α (ERN1); [8],2470 nM
COc1ccc2c(c1)c(CCC(=O)O)c(C)n2C(=O)c1ccc2ccccc2c1 [IA34],IRE1α IC50,"[1]; FRET assay, RNase activity, mean (± SEM)",IC₅₀ not reached
same,IC50,[1]; [5],> 20000 nM
same,inhibition at 0.000282 µM,[1]; [9],11%
same,inhibition(%),[1]; [9],17.14% and 20.16% and 15.89%
same,inhibition(%),"[1]; IRE1a, IA34 0.000847 μM, Supplementary Fig. 3b, replicate values",11.75% and 10.72% and 4.25% and 16.96%
same,inhibition(%),"[1]; IRE1a, IA34 0.00254 μM, Supplementary Fig. 3b, replicate values",11.91% and 15.33% and 6.07% and 5.16%
same,inhibition(%),"[1]; IRE1a, IA34 0.007621 μM, Supplementary Fig. 3b, replicate values",4.65% and -4.78% and -13.00% and -9.42%
same,inhibition(%),"[1]; IRE1a, IA34 0.022862 μM, Supplementary Fig. 3b, replicate values",-15.56% and -32.65% and -11.50% and -23.95%
same,inhibition(%),"[1]; IRE1a, IA34 0.068587 μM, Supplementary Fig. 3b, replicate values",0.30% and -2.50% and 3.18% and 1.26%
same,inhibition(%),"[1]; IRE1a, IA34 0.205761 μM, Supplementary Fig. 3b, replicate values",4.13% and 5.59% and 2.33% and -2.10%
same,inhibition(%),"[1]; IRE1a, IA34 0.617284 μM, Supplementary Fig. 3b, replicate values",17.19% and 19.37% and 7.03% and 9.32%
same,inhibition at 1.85185 µM,[1]; [10],10.8%
same,inhibition(%),[1]; [10],18.23% and 17.28% and 17.87%
same,inhibition(%),"[1]; IRE1a, IA34 5.55556 μM, Supplementary Fig. 3b, replicate values",27.30% and 30.30% and 1.63% and 11.62%
same,inhibition(%),"[1]; IRE1a, IA34 16.6667 μM, Supplementary Fig. 3b, replicate values",11.08% and 14.65% and 30.15% and 29.94%
same,inhibition(%),"[1]; IRE1a, IA34 50 μM, Supplementary Fig. 3b, replicate values",-1.98% and 7.19% and 5.53% and 17.33%
COc1ccc2c(c1)c(CCC(=O)O)c(C)n2C(=O)c1ccccc1 [IA64],IC50,[1]; [5],30 nM and 34.9 nM
same,IC50,[1]; [6],44.1 nM and 36.7 nM and 38.4 nM and 20.4 nM
same,inhibition at 5.56 µM,IRE1α (ERN1); [7],104%
same,inhibition at 16.7 µM,IRE1α (ERN1); [7],98%
same,inhibition at 50 µM,IRE1α (ERN1); [7],109%
same,IC50,IRE1α (ERN1); [8],1100 nM
Cc1c(CCC(=O)O)c2cc(Br)ccc2n1C(=O)c1ccccc1 [IA107],increase in potency (IRE1α),"[1]; FRET IC50, reference compound not named",20 fold
same,"IRE1a inhibition(%), individual measurements","[1]; FRET assay at 16.6667 μM, source data, 16.6667 µM",96.2448% and 97.4358% and 96.6561% and 93.7071% and 93.3922% and 93.79% and 97.6814%
same,inhibition at 16.6667 µM,"[1]; FRET assay at 16.6667 μM, source data, read-out: IRE1a inhibition(%), individual measurements",92.4%
same,"IRE1a inhibition(%), individual measurements",[1]; [4],89.203% and 96.8587% and 95.5081% and 91.4695% and 84.6077% and 86.1159% and 92.8068%
same,inhibition at 50 µM,"[1]; FRET assay at 50 μM, source data, read-out: IRE1a inhibition(%), individual measurements",91.3%
same,IC50,[1]; [5],16 nM and 15.6 nM
same,IC50,[1]; [6],15.5 nM and 17 nM and 14.2 nM
same,inhibition at 5.56 µM,IRE1α (ERN1); [7],88%
same,inhibition at 16.7 µM,IRE1α (ERN1); [7],94%
same,inhibition at 50 µM,IRE1α (ERN1); [7],96%
same,IC50,IRE1α (ERN1); [8],768 nM
same,inhibition at 5 µM,"IRE1α (ERN1); kinase profiling, ERN1, LanthaScreen Binding, IA107 at 5 μM",91%
Cc1c(CCC(=O)O)c2cc(Cl)ccc2n1C(=O)c1ccccc1 [IA141],IC50,[1]; [5],52 nM and 50 nM
same,IC50,[1]; [6],61.7 nM and 34.6 nM and 58.2 nM
Cc1ccc2c(c1)c(CCC(=O)O)c(C)n2C(=O)c1ccccc1 [IA147],IC50,[1]; [5],66 nM and 66.4 nM
same,IC50,[1]; [6],90.6 nM and 45.5 nM and 63.2 nM
CCOC(=O)CCc1c(C)n(C(=O)c2ccccc2)c2ccc(Br)cc12 [IAPD1],effect on IRE1α RNase activity in the FRET assay,[1],did not show any detectable activity
same,IC50,[1]; [5],> 50000 nM
same,effect on IRE1α RNase activity in the FRET assay,[1]; listed as IADP1,did not inhibit the RNase activity
same,effect on IRE1α protein level,[2],did not affect
same,effect on IRE1α protein level,[3],did not affect
same,binding to IRE1α kinase domain in LanthaScreen assay,IRE1α (ERN1),did not show any detectable activity
same,inhibition at 0.0686 µM,"IRE1α (ERN1); 0.0686 μM, read-out: IRE1a Kinase Displacement(%)",11.5%
same,binding to IRE1α kinase domain in LanthaScreen assay,IRE1α (ERN1); listed as IADP1,did not show any detectable
same,IC50,"IRE1α (ERN1); read-out: IC50 (Kinase), LanthaScreen kinase binding/displacement",> 50000 nM
Cc1ccc2c(NS(=O)(=O)c3ccccc3Cl)cccc2c1Oc1ncccc1-c1ccnc(N[C@H]2CCCNC2)n1 [KIRA8],IC50,[1]; [5],21 nM
same,effect on IRE1α protein level,[2],did not affect
same,effect on IRE1α protein level,[3],did not affect

# — PMC12475274, “Harnessing indole scaffolds to identify small-molecule IRE1α inhibitors modulating XBP1 mRNA splicing” (Nature Communications, 2025)
